Columns and labels:
p-p53 (Ser15) = experiment: Western Blot for p-p53 (Ser15) in HCT116 cells; assay type: cell-based, human; conditions: HCT116, 24 and 48 hours
Protocol: (§1) Treated cells were directly lysed in NP40 cell lysis buffer (Invitrogen, Grand Island, NY, USA) containing protease and phosphatase inhibitors. Protein concentrations were measured colorimetrically (DC Protein Assay, Bio-Rad Laboratories, Hercules, CA, USA). Proteins were separated by SDS - polyacrylamide gel electrophoresis and blotted onto nitrocellulose membranes (Whatman™, Vienna, AUT). Equal loading was checked by Ponceau S (SERVA, Heidelberg, GER) staining. Bound antigen was visualized with the enhanced chemiluminescence detection system (Roche Diagnostics, Indianapolis, IN, USA). These procedures were performed according to the manufacturer’s protocols. Antibodies specific for the following proteins of interest were used: pChk1 (Ser296), p-p53 (Ser15), β-Tubulin and GAPDH were obtained from Cell Signaling Technology (Danvers, MA, USA) at 1∶1000 dilution. Secondary antibodies were peroxidase-tagged goat anti-rabbit or anti-mouse IgGs (Cell Signaling Technology) (1∶2000).

HL-60 = experiment: Cytotoxicity assay (cell counting); assay type: cell-based; conditions: Homo sapiens; HL-60, AML; 72 hours incubation
Protocol: (§2) Cells were plated in 24-well plates. After cells were allowed to recover for 24 hours, NVX-412 was added in fresh growth medium. The maximal DMSO concentration reached in all experiments was below 0.01%. Respective control experiments at the highest DMSO concentration were performed in order to rule out DMSO-induced effects. After 72 hours incubation the proportion of viable cells was determined by cell counting with a Z1 Coulter Particle Counter (Beckman Coulter, Vienna, AUT), a ViCell XR (Beckman Coulter, Vienna, AUT) or a CASY® Cell Counter (Schärfe, Reutlingen, Germany). Cytotoxicity was expressed as IC50 values that were derived from the corresponding dose–response curves.

RKO = experiment: Cytotoxicity assay (cell counting); assay type: cell-based; conditions: Homo sapiens, colon carcinoma, 72 hours incubation
Protocol: as §2

SU-DHL-8 = experiment: Cytotoxicity assay (cell counting); assay type: cell-based; conditions: Homo sapiens; SU-DHL-8, B-cell lymphoma; 72 hours incubation
Protocol: as §2

HepG2 = experiment: Cytotoxicity assay (cell counting); assay type: cell-based; conditions: Homo sapiens; HepG2, liver carcinoma; 72 hours incubation
Protocol: as §2

[1] = test system: 59 different human tumor cell lines; experiment: NCI-60 DTP human tumor cell line screen, all cell lines combined; assay type: cell-based; conditions: 48 h, all cancer types, 48 hours incubation
Protocol: NVX-412 was included in an anti-cancer activity screen by the National Cancer Institute (NCI). The compound was tested against 59 different human tumor cell lines, representing leukemia, melanoma and cancers of the lung, colon, brain, ovary, breast, prostate, and kidney (for a complete list of cell lines please refer to Shoemaker et al. 2006 [5]). The methodology of this in vitro cancer screen is described in detail on the NCI website (http://dtp.nci.nih.gov/branches/btb/ivclsp.html). Briefly, the human tumor cell lines of the cancer screening panel were grown in RPMI 1640 medium containing 5% FCS and 2 mM L-glutamine in 96-well plates at densities ranging from 5,000 to 40,000 cells/well. After 24 hours the experimental drug was added at 5 concentrations plus control and cells were incubated for additional 48 hours. For determination of the growth-inhibitory effect of the compound a sulphorhodamine B assay was performed that employs a chemical fixation step at the end of drug treatment and a subsequent staining for 10 minutes. After a washing step, absorbance was determined at 515 nm. […]

HCT116 = experiment: Cytotoxicity assay (cell counting); assay type: cell-based, Human
Protocol: as §2

HT-29 = experiment: Cytotoxicity assay (cell counting); assay type: cell-based, Human
Protocol: as §2

[2] = test system: Central Nervous System Cancer cell lines; experiment: NCI-60 DTP human tumor cell line screen (sulphorhodamine B); assay type: cell-based; conditions: 5 cell lines, 48 hours incubation
Protocol: (§3) NVX-412 was included in an anti-cancer activity screen by the National Cancer Institute (NCI). The compound was tested against 59 different human tumor cell lines, representing leukemia, melanoma and cancers of the lung, colon, brain, ovary, breast, prostate, and kidney (for a complete list of cell lines please refer to Shoemaker et al. 2006 [5]). The methodology of this in vitro cancer screen is described in detail on the NCI website (http://dtp.nci.nih.gov/branches/btb/ivclsp.html). Briefly, the human tumor cell lines of the cancer screening panel were grown in RPMI 1640 medium containing 5% FCS and 2 mM L-glutamine in 96-well plates at densities ranging from 5,000 to 40,000 cells/well. After 24 hours the experimental drug was added at 5 concentrations plus control and cells were incubated for additional 48 hours. For determination of the growth-inhibitory effect of the compound a sulphorhodamine B assay was performed that employs a chemical fixation step at the end of drug treatment and a subsequent staining for 10 minutes. After a washing step, absorbance was determined at 515 nm. Three different dose response parameters are then calculated: growth inhibition of 50% (GI50), which is the drug concentration resulting in a 50% reduction in the net protein increase, the drug concentration resulting in total growth inhibition (TGI) and the LC50, indicating a net loss of cells following treatment.

Melanoma cell lines = experiment: as above; assay type: cell-based; conditions: 9 cell lines, 48 hours incubation
Protocol: as §3

[3] = test system: Prostate Cancer cell lines; experiment: as above; assay type: cell-based; conditions: 2 cell lines, 48 hours incubation
Protocol: as §3

Breast Cancer cell lines = experiment: as above; assay type: cell-based; conditions: 5 cell lines, 48 hours incubation
Protocol: as §3

[4] = test system: Ovarian Cancer cell lines; experiment: as above; assay type: cell-based; conditions: 6 cell lines, 48 hours incubation
Protocol: as §3

Renal Cancer cell lines = experiment: as above; assay type: cell-based; conditions: 8 cell lines, 48 hours incubation
Protocol: as §3

HepG2 cells = experiment: Clonogenic assay; assay type: cell-based, human; conditions: HepG2, 12 days incubation
Protocol: (§4) For clonogenic assays, HT-29 and HepG2 cells were plated in 60 mm dishes at a density of 1000 cells per dish. After 24 hours NVX-412 was added at the indicated concentrations. After cultivation for 12–14 days (when assessable colonies were visible), colonies were fixed in 70% ethanol, stained with 0.5% Crystal Violet and counted manually.

HT-29 cells [5] = experiment: Clonogenic assay; assay type: cell-based, human; conditions: HT-29, 14 days incubation
Protocol: as §4

pChk1 (Ser296) = experiment: Western Blot for pChk1 (Ser296) in HCT116 cells; assay type: cell-based, human; conditions: HCT116, 150 nM, 0–48 hours
Protocol: as §1

HeLa cells = experiment: Flow cytometric cell cycle analysis; assay type: cell-based, human; conditions: 24 hours, IC50 concentration, 0.5 and 1 µM
Protocol: (§5) HT-29, HeLa and HCT116 cells were plated in 6-well plates. […] CPT was used at 50 nM and 1 µM. To analyze the cell cycle distribution, cells were collected after 24 hours of incubation and washed with PBS. Cells were fixed in 70% ethanol for at least 2 hours. For analysis, cells were transferred into PBS, incubated with RNAse A (0.04 µg/ml final concentration) for 30 minutes at 37°C, treated with […] propidium iodide for 30 min at 4°C and then analyzed by flow cytometry using BD FACScan (Becton, Dickinson and Company, Franklin Lakes, NJ, USA). The resulting DNA histograms were quantified using ModFit LT (Verity Software House, Topsham, ME, USA).

HT-29 cells [6] = experiment: Flow cytometric cell cycle analysis; assay type: cell-based, human; conditions: HT-29, 24 hours, IC50 concentration, 0.5 and 1 µM
Protocol: as §5

HCT116 cells = experiment: Flow cytometric cell cycle analysis; assay type: cell-based, human; conditions: HCT116, 24 hours, IC50 concentration, 0.5 and 1 µM
Protocol: as §5

O=C(NNc1nc2cc(F)ccc2n2cccc12)c1cnccn1 [NVX-412, Pyrazine-2-carboxylic acid N’- (7-fluoro-pyrrolo[1,2-α]quinoxalin-4-yl)-hydrazide-oxalic acid co-crystal]
Phosphorylated p53 (Western Blot) (p-p53 (Ser15); below or at the IC50): negative for phosphorylated p53 | Phosphorylated p53 (Western Blot) (p-p53 (Ser15); concentrations above the IC50): strong induction | IC50 (HL-60): 210 nM | IC50 (RKO): 150 nM | IC50 (SU-DHL-8): 80 nM | IC50 (HepG2): 290 nM | IC50 [1]: ~200 nM | IC50 lower compared to the parental compound NVX-144 (HCT116; HCT116 colon carcinoma cell line): 3 to 4 fold | IC50 (HCT116; Homo sapiens, HCT-116, HCT116, colon carcinoma, 72 hours incubation): 150 nM | IC50 lower compared to the parental compound NVX-144 (HT-29; HT-29 colon carcinoma cell line): 3 to 4 fold | IC50 (HT-29; Homo sapiens, HT-29, colon adenocarcinoma, 72 hours incubation): 300 nM | IC50 [2]: 167 nM | IC50 (Melanoma cell lines): 214 nM | IC50 [3]: 276 nM | IC50 (Breast Cancer cell lines): 266 nM | IC50 [4]: 377 nM | IC50 (Renal Cancer cell lines): 182 nM | Clonogenic survival (HepG2 cells): reduced the ability of HepG2 and HT-29 cells to form colonies in a dose-dependent manner | Clonogenic survival (HT-29 cells [5]): reduced the ability of HepG2 and HT-29 cells to form colonies in a dose-dependent manner | Chk1 Ser296 phosphorylation (pChk1 (Ser296)): increased after 4 hours | Cell cycle distribution (HeLa cells): dose-dependent increase in the fraction of S-phase cells | Cell cycle distribution (HT-29 cells [6]): dose-dependent increase in the fraction of S-phase cells | Cell cycle distribution (HCT116 cells): dose-dependent increase in the fraction of S-phase cells
